Measurements published in PMC4122495, “Small Molecule Deubiquitinase Inhibitors Promote Macrophage Anti-Infective Capacity” (PLoS ONE, 2014).
Values after ≈ are worked out from the molar mass of the structure shown.

How the values were obtained:
[1] = system: L. monocytogenes; experiment: L. monocytogenes intracellular growth assay in RAW264.7 macrophages; assay type: cell-based, Listeria monocytogenes 10403S; parameters: decrease in Listeria intracellular viability: concentration or dose not given beside the values
Experimental: RAW264.7 cells were cultured at an initial density of 4×10^6 cells per 24-well plate and allowed to adhere overnight. Macrophages were treated with 2.5 or 5 µM of DUB inhibitors dissolved in dimethyl sulfoxide (DMSO) for 0.5 or 1 h or with equivalent volume of DMSO (vehicle control) at 37°C. For dose-response curves, macrophages were incubated with 5, 2.5, 1 and 0.5 µM of compounds 1, 3 and 4 or 2.5, 2, 1 and 0.5 µM of compounds 2 and 9 for 0.5 h or 1 h at 37°C. DUB inhibitors were removed from cell culture prior to infection by changing the medium. Macrophages were infected with L. monocytogenes at a multiplicity of infection (MOI) of 1 for 0.5 h at 37°C. The inoculum was removed by washing infected cells three times with Dulbecco’s phosphate-buffered saline (PBS), and the cells were incubated in medium containing 10 µg/ml of gentamicin to kill extracellular bacteria for the duration of the experiment. At 8 h post-infection, cells were lysed in 1 ml 0.1% Triton X-100, serially diluted and plated on Luria-Bertani (LB) agar to enumerate the number of colony forming units (CFU). CFU were counted using the Acolyte SuperCount (Microbiology International, Frederick, MD) plate reader and software. Results were normalized to DMSO-treated cells.
Supplementary file pone.0104096.s001.tif: Figure S1 Dose-response curves for selected compounds. RAW264.7 cells were incubated with DMSO (equivalent volume) or the varying concentrations of WP1130-derivatives for 0.5 h (compounds 1, 2, 4 and 9) or 1 h (compound 3). After incubation, the medium was removed, and cells were infected at 37°C for 0.5 h at an MOI of 1 with L. monocytogenes in the absence of additional drugs. Following the 0.5 h infection, cells were washed and gentamycin (10 µg/ml) was added to kill extracellular bacteria. Intracellular bacteria were enumerated at 8 h post-infection. The data represent percent of Listeria intracellular growth compared to DMSO-treated cells from three independent experiments performed in triplicate. Non-linear regression curves were performed using the GraphPad Prism software. (TIF) Click here for additional data file.

[2] = system: RAW264.7 cells; experiment: WST-1 cell viability assay, conditions mimicking the bacterial infection protocol; assay type: cell-based, murine; conditions: 2.5 µM, 0.5 h pre-treatment, then 8 h
Experimental: For cell viability assays in conditions that mimicked the bacterial infection protocol, RAW264.7 cells were cultured at an initial density of 4×10^6 cells per 96-well plate. Cells were treated with 2.5 or 5 µM DUB inhibitors dissolved in DMSO for 0.5 h or 1 h or with equivalent volume of DMSO. DUB inhibitors were removed after treatment by washing three times with PBS, and cells were incubated in culture media for 6.5 h at 37°C. The WST-1 reagent (Roche, San Francisco, CA), which measures mitochondrial dehydrogenase activity, was diluted 1 in 10 in media and cells were incubated at 37°C for an additional 1.5 h. The optical density at 440 nm (OD440) and 600 nm (OD600) was determined and results were normalized to DMSO-treated cells.

[3] = system: L. monocytogenes; experiment: Bacterial growth curve in BHI broth culture; assay type: cell-based, Listeria monocytogenes 10403S; conditions: 2.5 µM in BHI broth
Experimental: For bacterial growth curve in broth culture, an overnight culture of L. monocytogenes was back-diluted 1∶50 into BHI broth in the presence of 5 µM of compounds 1 to 4, 2.5 µM of compound 9 or equivalent volume of DMSO and incubated statically at 30°C for up to 8 h. At indicated time points (0, 2, 4, 6 and 8 h), a 50 µl-aliquot of bacteria was serially diluted and plated on LB agar to determine the number of CFU. To test the bactericidal properties of compound 9, an overnight culture of L. monocytogenes was back-diluted 1∶50 into BHI broth and allowed to grow at 37°C with shaking until an optical density at 600 nm (OD600) of ∼0.6–0.7 was obtained. Bacteria were then exposed to 1, 2.5 or 5 µM of compound 9 or equivalent volume of DMSO for 2 h at 4°C. After incubation, bacteria were serially diluted and plated on LB agar to determine CFU.

[4] = system: MNV-1; experiment: MNV-1 infection of RAW264.7 cells and plaque assay; assay type: cell-based, murine norovirus; conditions: RAW264.7 pre-treated 0.5 h with 2.5 µM; MOI 5; 8 h infection; plaque assay
Experimental: RAW264.7 cells were plated at a density of 5×10^5 cells/ml in each well of a 12-well plate and allowed to attach overnight. The following day, cells were incubated with either 5 µM WP1130 or 2.5 µM compound 9, for 30 min at 37°C. After incubation, cells were placed on ice for 1 hour where they were infected with MNV-1 at an MOI of 5. Cells were then washed three times with ice-cold PBS. Cells treated with compound 9 received media alone after washing, while media containing WP1130 or DMSO was added back to cells and the infection was allowed to proceed for 8 hours. Cells were freeze-thawed twice, and viral titers were determined by plaque assay as previously described.

[5] = system: HG23 cells; experiment: WST-1 cell viability assay in HG23 replicon cells; assay type: cell-based, human; conditions: 2.5 µM for 2 h, then 22 h
Experimental: For cell viability assays in conditions that mimicked the viral infections, RAW264.7 cells were cultured as described above and treated for 0.5 h with 5 µM WP1130 or 2.5 µM compound 9, incubated for 1 h on ice, washed three times with ice-cold PBS and incubated for an additional 8 h in presence of DMSO and WP1130 only. One and a half hours prior to the end of the experiment, the WST-1 reagent was diluted 1 in 10 in the media. For cell viability in HG23 replicon cells, DMSO and WP1130 remained on the cells for 24 h before incubation with the WST-1 reagent, whereas compound 9 was removed after a 2 h exposure and the WST-1 reagent added after an additional 22 h.

[6] = Aqueous kinetic solubility; assay type: physicochemical
[7] = system: USP9x; parameters: method as in Donato, N. J., manuscript in preparation; conditions: cell-based assay; ref Donato, N. J., manuscript in preparation; read-out: IC50 against USP9x; cited from earlier work

CCCC(NC(=O)/C(C#N)=C/c1nc(Cl)ccc1Cl)c1ccc(OCCN2CCOCC2)cc1 (centres unmarked) [Compound 9]
EC50 ([1]; Listeria monocytogenes, RAW264.7 pre-treated with varying concentrations, then infected (MOI 1), intracellular CFU at 8 h post-infection, non-linear regression): 1920 nM
decrease in Listeria intracellular viability ([1]; RAW264.7 pre-treated at each compound's working condition (Fig. 2B, 5B), 8 h post-infection, vs DMSO): 66.1%
Decrease intracellular listeria viability (%) ([1]; conditions of Figure 2B and Figure 5B, maximal effective drug concentration used, 8 h post-infection, vs DMSO): 66.1%
cellular toxicity (WST-1 viability) [2]: little cellular toxicity
effect on overall CFU per ml by 8 h in broth culture [3]: did not significantly affect overall CFU per ml by 8 h
effect on growth rate in axenic broth culture ([3]; up to 8 h): modest decrease in the growth rate
decrease in MNV-1 titers compared to DMSO-treated cells [4]: more than 2.5 logs
toxicity (WST-1 viability) [5]: no toxicity
solubility kinetic ([6]; aqueous (not further specified)): ~20 µM (≈ 10.1 µg/mL)
improvement in solubility vs WP1130 ([6]; compound 9 compared to WP1130): > 6 fold
IC50 [7]: 1800 nM
